Results from US5032584A, “S-diastereomer of an n^6 -((2-hydroxypropyl)aryl)adenosine and its medicinal uses” (G. D. Searle & Co., priority 1988, dated 1991).
Entries after “also recorded” stand apart in the source; their conditions may differ.

Tests used:
Solubility in MeOH = type: physicochemical; conditions: S isomer vs R isomer
[1] = test system: spontaneously hypertensive rats (SHR); assay: Effects on mean arterial pressure and heart rate in conscious spontaneously hypertensive rats (i.v. or intragastric); type: in vivo, rat
Description: The effects of compounds I and II were tested intravenously or intragastrically in conscious spontaneously hypertensive rats (SHR). The rats were anesthetized with ether and the left carotid artery and right jugular vein were cannulated with polyethylene tubing. The rats were allowed three to five hours recovery from anesthesia for the I.V. studies and 12 to 18 hours for the oral studies. Mean arterial pressure (MAP, in mm/Hg) and heart rate (HR, beats/min.) were measured from the artery; intravenous administration of compounds was performed by injection into the vein. Oral administration was performed by gastric intubation. Compounds were dissolved in DMSO for I.V. studies and injected in volumes of 100 μ1/kg or less (N=5 per pound). Doses were 3 to 1,000 μg/kg. Compounds were dissolved in polyethylene glycol for oral administration and injected in volumes of 1 ml/kg at a dose of 20 mg/kg/day for three days (N=3 to 6 per compound).
The resting MAP and HR for the SHR ranged between 160-200 mm Hg and 330/350 b/min., respectively.

[2] = test system: plasma renin activity (PRA); assay: Change in plasma renin activity in the bilateral renal artery ligated rat; type: in vivo, Sprague-Dawley rats; conditions: 1 mg/kg I.V.; for Prevention of PRA increase (in words): 30 and 60 minutes
Description: Adenosine Al receptor stimulation will inhibit the release of renin from the kidney. A stimulus for the release of renin is renal ischemia. The ability of the compounds of the present invention to prevent an increase in PRA following renal ischemia was tested in rats with both renal arteries ligated. Sprague-Dawley rats were anesthetized with ether and the renal arteries were ligated. Three to five hours after anesthesia, arterial blood was sampled and compounds I and II were administered in polyethylene glycol at 1 mg/kg I.V. At 30 and 60 minutes after administration, arterial blood was sampled for PRA measurement by the method of Sealy, J. E. et al., Cardiovasc. Med. 2:1079, 1977.

mice [3] = assay: Ataxia on the rotating rod in mice; type: in vivo; conditions: for Percent ataxic, 0.5 hour / Percent ataxic, 3 hour: 54 ± 12 mg/kg ip (pooled 32, 56, 75 mg/kg)
Description: (§1) Adenosine analogs tend to produce sedation and central nervous system depression which have prevented their therapeutic utility. The compounds of the invention, at doses which lower arterial pressure in the SHR, show no evidence of CNS depression. The ataxia produced by compounds of the present invention was measured in mice by injecting the compounds IP at doses of 32, 56, or 75 mg/kg in an aqueous suspension, n=7 per dose. The mice had previously been trained to remain on a rotating rod. After dosing, the percent of mice unable to remain on the rotating rod was determined. […] The mice were also observed at various time intervals for behavioral signs of toxicity.

mice [4] = assay: Behavioral toxicity in mice after 75 mg/kg IP; type: in vivo; design: key to Motor depression / Ptosis / Respiratory depression / Flaccidity / Loss of righting reflex: +: toxic symptom observed
Description: as §1

[5] = test system: adenosine A1 receptor in the granular juxtaglomerular cells of the kidney; conditions: Federation Proceedings 44:879 & 1643, 1985; cited from earlier work
[6] = 20 mg/kg intragastric, day 2 of oral administration

OC[C@H]1O[C@@H](n2cnc3c(NC[C@@H](O)COc4cccc5ccccc45)ncnc32)[C@H](O)[C@@H]1O [R isomer]
Solubility in MeOH (in words) (Solubility in MeOH): more soluble in MeOH

OC[C@H]1O[C@@H](n2cnc3c(NC[C@H](O)COc4cccc5ccccc45)ncnc32)[C@H](O)[C@@H]1O [Compound II, N^6-[2S-hydroxy-3-(1naphthalenyloxy)propyl]-adenosine]
Maximum decrease at 20 mg/kg ig, HR [1, 6]: 202 ± 24 b/min | Maximum decrease at 20 mg/kg ig, MAP [1, 6]: 62 ± 7 mmHg | ED (HR decrease by 100 b/min) ([1]; Rattus norvegicus, iv, i.v. in DMSO, read-out: IV dose to decrease HR by 100 b/min): 0.036 ± 0.0012 mg/kg | ED (MAP decrease by 40 mmHg) ([1]; Rattus norvegicus, iv, i.v. in DMSO, read-out: IV dose to decrease MAP by 40 mmHg): 0.047 ± 0.0012 mg/kg | Prevention of PRA increase (in words) [2]: prevented to the same extent | Change in PRA, 30 minutes ([2]; 30 min after dosing): -11.7 ± 3.5 ngAI/ml/hr | Change in PRA, 60 minutes ([2]; 60 min after dosing): -13.8 ± 4.9 ngAI/ml/hr | Percent ataxic, 0.5 hour (mice [3]): 14 ± 8% | Percent ataxic, 3 hour (mice [3]): 48 ± 21% | Central nervous system toxicity (in words) (mice [3]; compared to compound I / racemic mixture): less CNS toxic than compound I, especially with regard to ataxia; also recorded: less central nervous system toxicity than the racemic mixture | Ataxia / motor toxicity (in words) (mice [3]; mice, ip, compared to compound I): less ataxia at 0.5 or 3 hours as compared to compound I; also recorded: less motor toxicity than compound I | Flaccidity (mice [4]; 75 mg/kg IP, 18-20 h): + | Motor depression (mice [4]; 75 mg/kg IP, 18-20 h): + | Ptosis (mice [4]; 75 mg/kg IP, 18-20 h): + | Motor depression (mice [4]; 75 mg/kg IP, 0.5 h): + | Ptosis (mice [4]; 75 mg/kg IP, 0.5 h): + | Motor depression (mice [4]; 75 mg/kg IP, 3 h): + | Ptosis (mice [4]; 75 mg/kg IP, 3 h): + | Motor depression (mice [4]; 75 mg/kg IP, 24 h): + | Motor depression, incidence (mice [4]; 75 mg/kg IP, 24 h): 5/7 | Ptosis (mice [4]; 75 mg/kg IP, 24 h): + | Ptosis, incidence (mice [4]; 75 mg/kg IP, 24 h): 5/7 | Respiratory depression, incidence (mice [4]; 75 mg/kg IP, 24 h): 5/7 | Respiratory depression (mice [4]; mouse, in vivo): + | Solubility in MeOH (in words) (Solubility in MeOH): less soluble in MeOH

OC[C@H]1O[C@@H](n2cnc3c(NCC(O)COc4cccc5ccccc45)ncnc32)[C@H](O)[C@@H]1O (mixture of isomers) [Compound I, N(6)-[2-hydroxy-3-(1-naphthyloxy)propyl]-adenosine]
Prevention of PRA increase (in words) [2]: prevented to the same extent | Percent ataxic, 0.5 hour (mice [3]): 33 ± 10% | Percent ataxic, 3 hour (mice [3]): 95 ± 5% | Flaccidity (mice [4]; 75 mg/kg IP, 18-20 h): + | Flaccidity, incidence (footnote *) (mice [4]; 75 mg/kg IP, 18-20 h): 2/7 | Motor depression (mice [4]; 75 mg/kg IP, 18-20 h): + | Ptosis (mice [4]; 75 mg/kg IP, 18-20 h): + | Respiratory depression (mice [4]; 75 mg/kg IP, 18-20 h): + | Motor depression (mice [4]; 75 mg/kg IP, 0.5 h): + | Ptosis (mice [4]; 75 mg/kg IP, 0.5 h): + | Respiratory depression (mice [4]; 75 mg/kg IP, 0.5 h): + | Behavioral toxicity (in words) (mice [4]; 75 mg/kg IP, 3 h): flaccidity and loss of righting reflex | Flaccidity (mice [4]; 75 mg/kg IP, 3 h): + | Loss of righting reflex (mice [4]; 75 mg/kg IP, 3 h): + | Motor depression (mice [4]; 75 mg/kg IP, 3 h): + | Ptosis (mice [4]; 75 mg/kg IP, 3 h): + | Respiratory depression (mice [4]; 75 mg/kg IP, 3 h): + | Binding to adenosine A1 receptor and effect on renin release, blood pressure, heart rate (in words) [5]: binds to the adenosine Al receptor in the granular juxtaglomerular cells of the kidney to inhibit release of renin into the plasma, ultimately resulting in a reduction in circulating angiotensin II, thus reducing arterial blood pressure and heart rate in hypertensive models
